Experimental findings from patent publication US20250025048A1, “Liver Viscoelastic Changes and Biomarkers for Cancer Invasion” (The Board of Trustees of the Leland Stanford Junior …, priority 2021, published 2025) are described below.

In assay [1] the test system is livers from HiAD-fed mice. In words: Rheometry of livers (dynamic time sweep and stress relaxation test). Particulars: 600 s; for storage modulus (stiffness, G'): 2% constant strain, 1 radian/s, FIG. 3B; for faster relaxation times (high viscoelasticity) of HiAD livers, stress relaxation test: initial 10% strain, FIGS. 3C-3D. It is filed as in vivo. Here is the method:
FIGS. 3A-3D. […] The plate was lowered to touch the sample and 100˜300 Pa of initial force was applied. Dynamic time sweep test (2% constant strain, oscillation frequency 1 radian/s, measurements taken for 600 s) was done first to collect the shear storage modulus (stiffness, G′) and loss modulus (G″) (FIG. 3A). […] Stress relaxation test was performed for 600 s with an initial 10% strain. […] Stress was normalized by the initial stress (FIG. 3C). Quantification of timescale at which the stress is relaxed to half its original value (τ1/2), from the tests in FIG. 3C (FIG. 3D). (N=2-4, Data are represented as mean±SEM; one way ANOVA followed by post-hoc Tukey test *p<0.05, **p<0.01, ***p<0.001).
The plate was lowered to touch the sample and 100˜300 Pa of initial force was applied. Dynamic time sweep test (2% constant strain, oscillation frequency 1 radian/s, measurements taken for 600 s) was done first to collect the shear storage modulus (stiffness, G′) and loss modulus (G″) (FIG. 3A). […] A stress relaxation test was performed for 600 s with an initial 10% strain. […] Stress was normalized by the initial stress (FIG. 3C). Quantification of timescale at which the stress is relaxed to half its original value (τ1/2), from the tests in FIG. 3C (FIG. 3D). (N=2-4, Data are represented as mean±SEM; one way ANOVA followed by post-hoc Tukey test *p<0.05, **p<0.01, ***p<0.001).

In assay [2] the test system is livers from HiAD-fed mice. Kind of assay: Atomic force microscopy (AFM) indentation of livers, hysteresis between approach and retraction curves. Particulars: 60 mg/kg daily, i.p., FIG. 1B. It counts as in vivo. From the text:
FIGS. 1A-1B. ECM viscoelasticity increases in an advanced glycation end product (AGE) and hepatocyte RAGE-dependent manner. Schematic presentation of the methods used to assess mechanical responses to indentation by an atomic force microscope (AFM) probe. Force-distance curve is generated when the probe indents the sample until a defined force is reached (blue, approach curve) and the cantilever is retracted (red, retraction curve). The hysteresis between the approach and retraction curves indicates sample viscosity (FIG. 1A).
As shown in FIGS. 1A-1B, extracellular matrix (ECM) viscoelasticity increases in an AGE and hepatocyte RAGE-dependent manner. Mechanical responses to indentation were assessed by an atomic force microscope (AFM) probe. A force-distance curve is generated when the probe indents the sample until a defined force is reached and the cantilever is retracted. The hysteresis between the approach and retraction curves indicates sample viscosity (FIG. 1A).

SMILES strings stand for the structures.

Turning to `Cc1sc[n+](CC(=O)c2ccccc2)c1C.[Cl-]` [alagebrium, 3-phenacyl-4,5-dimethylthiazolium chloride], in assay [1], the “storage modulus (stiffness, G')” value is on record as “did not change” and the “faster relaxation times (high viscoelasticity) of HiAD livers, stress relaxation test” value is on record as “reversed”.
Turning to `Cc1ncc(CO)c(CN)c1O` [PM, pyridoxamine], the “hysteresis area between approach and retraction force curves (sample viscosity)” value in assay [2] is listed as “reduced”. Further, in assay [1], the “storage modulus (stiffness, G')” value is recorded as “did not change” and the “faster relaxation times (high viscoelasticity) of HiAD livers, stress relaxation test” value was “reversed”.
